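Five compound concentrations were applied to cells in 96-well plates for 48 hours; endpoints were derived by simple linear interpolation of the resulting dose-response curve. The concentration for 50% growth inhibition is given as GI50.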 The source made the active and inactive calls. Cut-off read from the data, not from the text of the source: active = GI50 up to about 1.1 µM and inactive = higher.
What was measured:
Experiment in all cases: NCI anticancer screen, dose series, 48 h
CAKI-1 = system: CAKI-1
SF-268 = system: SF-268
KM12 = system: KM12
UACC-257 = system: UACC-257
IGROV-1 = system: IGROV-1
HCT-116 = system: HCT-116
SNB-19 = system: SNB-19
EKVX = system: EKVX
SF-295 = system: SF-295
SW-620 = system: SW-620
HOP-92 = system: HOP-92
SK-MEL-5 = system: SK-MEL-5
COLO 205 = system: COLO 205
MOLT-4 = system: MOLT-4
OVCAR-8 = system: OVCAR-8
OVCAR-4 = system: OVCAR-4
UACC-62 = system: UACC-62
OVCAR-5 = system: OVCAR-5
RPMI-8226 = system: RPMI-8226
ACHN = system: ACHN

| SMILES | GI50 (CAKI-1) | GI50 (SF-268) | GI50 (KM12) | GI50 (UACC-257) | GI50 (IGROV-1) | GI50 (HCT-116) | GI50 (SNB-19) | GI50 (EKVX) | GI50 (SF-295) | GI50 (SW-620) | GI50 (HOP-92) | GI50 (SK-MEL-5) | GI50 (COLO 205) | GI50 (MOLT-4) | GI50 (OVCAR-8) | GI50 (OVCAR-4) | GI50 (UACC-62) | GI50 (OVCAR-5) | GI50 (RPMI-8226) | GI50 (ACHN) |
| --- | --- | --- | --- | --- | --- | --- | --- | --- | --- | --- | --- | --- | --- | --- | --- | --- | --- | --- | --- | --- |
| NC(Cc1cc(I)c(O)c(I)c1)C(=O)O (configuration not stated) | 45.4 µM (inactive) | > 484 µM (inactive) | > 500 µM (inactive) | 293 µM (inactive) | > 500 µM (inactive) | 470 µM (inactive) | 249 µM (inactive) | > 316 µM (inactive) | > 500 µM (inactive) | 163 µM (inactive) | 13.6 µM (inactive) | > 500 µM (inactive) | 263 µM (inactive) | 401 µM (inactive) | > 500 µM (inactive) | 211 µM (inactive) | > 279 µM (inactive) | > 427 µM (inactive) | > 500 µM (inactive) | – |
| O=C1OC(c2ccccc2Br)=N/C1=C/c1ccccc1 | 35.2 µM (inactive) | 31.6 µM (inactive) | 19 µM (inactive) | > 100 µM (inactive) | 39.4 µM (inactive) | 37.2 µM (inactive) | 24.9 µM (inactive) | > 100 µM (inactive) | 34.1 µM (inactive) | 42.9 µM (inactive) | > 10 µM (inactive) | 35.2 µM (inactive) | > 10 µM (inactive) | 48.8 µM (inactive) | 21.6 µM (inactive) | 25.4 µM (inactive) | 37.1 µM (inactive) | 40.2 µM (inactive) | 33.1 µM (inactive) | 27.5 µM (inactive) |
| CCC(Sc1cc(Cl)c(C)cc1S(=O)(=O)Nc1nc(N)nc(N(C)C)n1)C(=O)O (configuration not stated) | > 10 µM (inactive) | > 10 µM (inactive) | > 10 µM (inactive) | > 10 µM (inactive) | > 10 µM (inactive) | > 10 µM (inactive) | > 10 µM (inactive) | > 10 µM (inactive) | > 10 µM (inactive) | > 10 µM (inactive) | > 10 µM (inactive) | > 10 µM (inactive) | > 10 µM (inactive) | > 10 µM (inactive) | > 10 µM (inactive) | > 10 µM (inactive) | – | > 10 µM (inactive) | > 10 µM (inactive) | > 10 µM (inactive) |
| Cc1nc2ccccc2cc1C[N+]12CN3CN(CN(C3)C1)C2 | 27.5 µM (inactive) | 22.7 µM (inactive) | 20.9 µM (inactive) | 18.4 µM (inactive) | 31.4 µM (inactive) | 5.21 µM (inactive) | 23.8 µM (inactive) | 23.3 µM (inactive) | 22.9 µM (inactive) | 5.35 µM (inactive) | 45.2 µM (inactive) | 18.4 µM (inactive) | 14.1 µM (inactive) | 34 µM (inactive) | 30.3 µM (inactive) | 22.3 µM (inactive) | 17.2 µM (inactive) | 23.8 µM (inactive) | 3.4 µM (inactive) | 17.1 µM (inactive) |
| O=C(Nc1nc2ncn(CCO)c2c(=O)[nH]1)c1ccccc1 | > 100 µM (inactive) | > 100 µM (inactive) | > 100 µM (inactive) | > 100 µM (inactive) | > 100 µM (inactive) | > 100 µM (inactive) | > 100 µM (inactive) | > 100 µM (inactive) | > 100 µM (inactive) | > 100 µM (inactive) | > 100 µM (inactive) | > 100 µM (inactive) | > 100 µM (inactive) | – | > 100 µM (inactive) | > 100 µM (inactive) | > 100 µM (inactive) | > 100 µM (inactive) | > 100 µM (inactive) | > 100 µM (inactive) |
| CCNCCCCNCC | > 3750 µM (inactive) | > 2990 µM (inactive) | > 3750 µM (inactive) | > 3750 µM (inactive) | > 3750 µM (inactive) | > 2480 µM (inactive) | > 3750 µM (inactive) | > 3750 µM (inactive) | > 3750 µM (inactive) | > 3750 µM (inactive) | > 3750 µM (inactive) | > 3750 µM (inactive) | > 3750 µM (inactive) | 1390 µM (inactive) | > 3750 µM (inactive) | > 3750 µM (inactive) | 2750 µM (inactive) | > 3750 µM (inactive) | > 3750 µM (inactive) | – |
| [N-]=[N+]=CC(=O)CCC(NC(=O)C(CCC(=O)C=[N+]=[N-])NC(=O)CCC(N)C(=O)O)C(=O)O (configuration not stated) | > 100 µM (inactive) | > 100 µM (inactive) | 31.6 µM (inactive) | > 100 µM (inactive) | > 100 µM (inactive) | > 100 µM (inactive) | > 100 µM (inactive) | > 100 µM (inactive) | > 100 µM (inactive) | > 100 µM (inactive) | > 100 µM (inactive) | > 100 µM (inactive) | > 100 µM (inactive) | > 100 µM (inactive) | > 100 µM (inactive) | > 100 µM (inactive) | > 100 µM (inactive) | > 100 µM (inactive) | > 100 µM (inactive) | – |
| CC1=N/C(=C/c2ccc3c(c2)OCO3)C(=O)O1 | > 100 µM (inactive) | > 100 µM (inactive) | > 100 µM (inactive) | > 100 µM (inactive) | > 100 µM (inactive) | > 100 µM (inactive) | > 100 µM (inactive) | > 100 µM (inactive) | – | > 100 µM (inactive) | > 100 µM (inactive) | > 100 µM (inactive) | > 100 µM (inactive) | > 100 µM (inactive) | > 100 µM (inactive) | > 100 µM (inactive) | > 100 µM (inactive) | > 100 µM (inactive) | > 100 µM (inactive) | > 100 µM (inactive) |
| CSc1nc2c(c(=O)n1C)N=C(c1ccc(Cl)cc1)CC(c1ccccc1)N2 (configuration not stated) | 24.4 µM (inactive) | – | 15.7 µM (inactive) | 22.6 µM (inactive) | 18.3 µM (inactive) | 27.2 µM (inactive) | 36.3 µM (inactive) | 20.9 µM (inactive) | 21.3 µM (inactive) | 49 µM (inactive) | 33.8 µM (inactive) | 19.5 µM (inactive) | 21.7 µM (inactive) | 14.1 µM (inactive) | 27.8 µM (inactive) | 6.84 µM (inactive) | 16.1 µM (inactive) | 33.8 µM (inactive) | 22 µM (inactive) | 19 µM (inactive) |
| CC(C)c1nccn1Cc1ccc(Cl)cc1Cl | 53.7 µM (inactive) | 76.9 µM (inactive) | 30.5 µM (inactive) | 17.7 µM (inactive) | > 100 µM (inactive) | 16.3 µM (inactive) | 48.5 µM (inactive) | 25.5 µM (inactive) | 14.5 µM (inactive) | 49.1 µM (inactive) | 37.8 µM (inactive) | 12 µM (inactive) | 29.2 µM (inactive) | – | 46.2 µM (inactive) | 52.5 µM (inactive) | 43.8 µM (inactive) | 27.7 µM (inactive) | 16 µM (inactive) | 83 µM (inactive) |
| CC(=O)OC(C)C(=O)C1c2cccc(O)c2C(=O)c2c(O)cc(C)cc21 (configuration not stated) | 1.71 µM (inactive) | 0.381 µM (active) | 0.33 µM (active) | 0.41 µM (active) | 0.478 µM (active) | 0.31 µM (active) | 0.344 µM (active) | 1.36 µM (inactive) | 0.344 µM (active) | 0.502 µM (active) | 0.288 µM (active) | 0.357 µM (active) | 1.65 µM (inactive) | 3.06 µM (inactive) | 1.06 µM (active) | 0.452 µM (active) | – | 1.31 µM (inactive) | 0.991 µM (active) | 0.579 µM (active) |
| CC(=O)C1CC(C)=CCC12C(=O)Nc1ccccc12 (configuration not stated) | > 100 µM (inactive) | > 100 µM (inactive) | > 100 µM (inactive) | – | > 100 µM (inactive) | > 100 µM (inactive) | > 100 µM (inactive) | > 100 µM (inactive) | > 100 µM (inactive) | > 100 µM (inactive) | > 100 µM (inactive) | > 100 µM (inactive) | > 100 µM (inactive) | 43 µM (inactive) | > 100 µM (inactive) | > 100 µM (inactive) | 68.1 µM (inactive) | > 100 µM (inactive) | > 100 µM (inactive) | > 100 µM (inactive) |
| C/C(CC(O)(C(F)(F)F)C(F)(F)F)=N/Nc1ccc([N+](=O)[O-])cc1[N+](=O)[O-] | 2.24 µM (inactive) | 2.81 µM (inactive) | 3.21 µM (inactive) | 2.87 µM (inactive) | 4.15 µM (inactive) | 1.75 µM (inactive) | 3.27 µM (inactive) | 2.26 µM (inactive) | 4.1 µM (inactive) | 3.44 µM (inactive) | 1.8 µM (inactive) | 1.68 µM (inactive) | 2.05 µM (inactive) | 4.4 µM (inactive) | 3 µM (inactive) | 3.42 µM (inactive) | 3.02 µM (inactive) | – | 1.56 µM (inactive) | 2.56 µM (inactive) |
| CCC(C)C(=O)c1c(O)c(C/C=C(\C)CCC=C(C)C)c(O)c2c(C(O)CC)cc(=O)oc12 (configuration not stated) | 2.23 µM (inactive) | 1.9 µM (inactive) | 2.51 µM (inactive) | 2.21 µM (inactive) | 2.68 µM (inactive) | 0.867 µM (active) | 4.23 µM (inactive) | 3.6 µM (inactive) | 2.81 µM (inactive) | 1.98 µM (inactive) | 1.63 µM (inactive) | 1.19 µM (inactive) | 1.71 µM (inactive) | 1.59 µM (inactive) | – | 2.11 µM (inactive) | 1.3 µM (inactive) | 5.28 µM (inactive) | 1.09 µM (active) | 2.2 µM (inactive) |
| C[C@H]1COC(c2ccccn2)=N1 | > 100 µM (inactive) | > 100 µM (inactive) | > 100 µM (inactive) | > 100 µM (inactive) | > 100 µM (inactive) | > 100 µM (inactive) | > 100 µM (inactive) | > 100 µM (inactive) | > 100 µM (inactive) | > 100 µM (inactive) | > 100 µM (inactive) | > 100 µM (inactive) | > 100 µM (inactive) | > 100 µM (inactive) | > 100 µM (inactive) | > 100 µM (inactive) | > 100 µM (inactive) | > 100 µM (inactive) | > 100 µM (inactive) | – |

Source: ChEMBL document CHEMBL1201862, “PubChem BioAssay data set” (2004)
